Assay results: publication PMC8286823, “Identifying SARS-CoV-2 antiviral compounds by screening for small molecule inhibitors of nsp15 endoribonuclease” (Biochemical Journal, 2021)
Where “and” joins values, the source holds several entries; their conditions need not be identical. Identical values can stand only once. Counter-ions that a name gives are not always drawn.

What was measured:
[1] = target: T1, SARS-CoV-2 nsp15 endoribonuclease (Severe acute respiratory syndrome coronavirus 2, UniProt P0DTD1); assay: biochemical; assay type: biochemical
[2] = target: T1, SARS-CoV-2 nsp15 endoribonuclease; assay type: biochemical; conditions: 100 µM compound, 500 nM nsp15, 1 µM 16 nt U substrate; for mean cleavage (%): 20 min at 30°C, n=3
[3] = target: T1, SARS-CoV-2 nsp15 endoribonuclease
RNase A = RNase A (Bos taurus, UniProt P61823); assay: Gel-based nuclease specificity assay with 16 nt U substrate, RNase A; assay type: biochemical; conditions: 0, 11, 33 or 100 µM; 1 pg/µl RNase A, 1 µM 16 nt U substrate
[4] = target: T2, Pierce Universal Nuclease (benzonase) (Serratia marcescens, UniProt P13717); assay: Gel-based nuclease specificity assay with 16 nt U substrate, benzonase; assay type: biochemical; conditions: 0, 11, 33 or 100 µM; 25 mU/µl Pierce Universal Nuclease, 1 µM 16 nt U substrate
T2 construct: purchased Pierce

SARS-CoV-2 = SARS-CoV-2 infectivity assay in VERO E6 cells (viral area, anti-N staining); assay type: cell-based
Method: (§1) We infected VERO E6 cells with SARS-CoV-2 in the presence of a range of concentrations of NSC95397 and quantified viral infected area (Figure 5A,B). NSC95397 sacrificed VERO E6 cells at concentrations above 10 μM, consistent with previous reports that NSC95397 is an inhibitor of the Cdc25 protein phosphatase and multiple protein kinases [[39–42]]. This made it more difficult to assess viral growth. With the aim of finding a concentration of NSC95397 that inhibited viral growth without killing the cells, we performed a second titration at lower NSC95397 concentrations (Figure 5C,D).
(§2) Figure 5. […] (A) SARS-CoV-2 infectivity assays in the presence of NSC95397. DNA in cells was stained with DRAQ5, and virus was immunostained with anti-N antibody. (B) Quantification of normalised viral area (black) and cell area (gray) ±SD. […] (D) Quantification of C as in B. (E) SARS-CoV-2 infectivity assays as in C in the presence of 0.5 µM remdesivir. (F) Quantification of E as in B, note that black control line is quantification of control experiment in C.
(§3) Infectivity assays were performed as in the accompanying manuscript (see Zeng et al.). […] The whole well area was delineated, and area of Alexa488/N protein and DRAQ5/DNA signals were determined for each well. […]

VERO E6 cells = assay: Cell survival (cell area, DRAQ5) in SARS-CoV-2 infectivity assay; assay type: cell-based, Chlorocebus sabaeus; conditions: infected VERO E6 cells, 22 h
Method: as §1, §2, §3

T2 sequence (P13717 22-266): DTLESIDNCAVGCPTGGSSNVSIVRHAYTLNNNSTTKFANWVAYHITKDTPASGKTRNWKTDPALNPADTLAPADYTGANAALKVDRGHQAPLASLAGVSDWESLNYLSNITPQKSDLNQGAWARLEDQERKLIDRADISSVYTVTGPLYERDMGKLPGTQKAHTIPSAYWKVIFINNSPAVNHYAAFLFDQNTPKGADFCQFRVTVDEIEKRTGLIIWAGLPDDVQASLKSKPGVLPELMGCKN
Chain of RNase A (P61823 27-150): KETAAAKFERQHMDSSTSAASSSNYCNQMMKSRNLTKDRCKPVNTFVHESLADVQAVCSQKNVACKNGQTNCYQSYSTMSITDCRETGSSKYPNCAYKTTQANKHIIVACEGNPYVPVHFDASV

SMILES | mean cleavage (%) [2] | activity [3] | other results
Cc1c(COc2cc(OCc3cccc(C#N)c3)c(CN3C[C@H](O)C[C@@H]3C(=O)O)cc2Cl)cccc1-c1ccc2c(c1)OCCO2 [BMS-1166] | 58% |  | inhibition of nsp15 endoribonuclease activity in plate reader [1]: able to inhibit nsp15 endoribonuclease activity; effect on nsp15 endoribonuclease activity in gel-based assay [2]: did not inhibit the enzyme even at 100 µM
O=c1cc(-c2ccccc2)oc2cc(O)c(O)c(O)c12 [Baicalein] | 64% | 80% | 
C=C(C)[C@@H]1CC[C@]2(C(=O)O)CC[C@]3(C)[C@H](CC[C@@H]4[C@@]5(C)CC[C@H](O)C(C)(C)[C@@H]5CC[C@]43C)[C@@H]12 [Betulinic acid] | 51% |  | 
Cl.Cl.NCCC(=O)NCCc1cnc[nH]1 [Carcinine dihydrochloride] | 76% |  | 
COc1cc(/C=C/C(=O)CC(=O)/C=C/c2ccc(O)c(OC)c2)ccc1O [Curcumin] |  | 95% and 100% | 
CN1C[C@H](C(=O)N[C@]2(C)O[C@@]3(O)[C@@H]4CCCN4C(=O)[C@H](Cc4ccccc4)N3C2=O)C[C@@H]2c3cccc4[nH]cc(c34)C[C@H]21 [Dihydroergotamine mesylate] |  | 95% and 98% | 
CN1C[C@H](C(=O)N[C@]2(C)O[C@@]3(O)[C@@H]4CCCN4C(=O)[C@H](Cc4ccccc4)N3C2=O)C=C2c3cccc4[nH]cc(c34)C[C@H]21 [Ergotamine] |  | 99% and 100% | 
O=C1c2cc([N+](=O)[O-])ccc2-n2c1nc1ccccc1c2=O [GNF-PF-3777] | 60% |  | effect on nsp15 endoribonuclease activity in gel-based assay [2]: had no effect even at 100 µM
Cn1cnc2nc(NCCO)nc(NCc3ccccc3)c21 [Iso-Olomoucine] | 60% |  | 
CC(C)(C)c1nc2c3cc[nH]c(=O)c3c3cc(F)ccc3c2[nH]1 [JAK Inhibitor I] | 65% |  | 
CCCNS(=O)(=O)Nc1ncnc(OCCOc2ncc(Br)cn2)c1-c1ccc(Br)cc1 [Macitentan] | 64% |  | 
CC#C[C@]1(O)CC[C@H]2[C@@H]3CCC4=CC(=O)CCC4=C3[C@@H](c3ccc(N(C)C)cc3)C[C@@]21C [Mifepristone] | 63% | 85% | 
O=Nc1ccc2oc(=O)ccc2c1 [NOBP] | 63% |  | 
O=C1C(SCCO)=C(SCCO)C(=O)c2ccccc21 [NSC95397] | 9% |  | Hill slope [1]: -2.5; IC50 [1]: 43 µM; inhibition of nsp15 endoribonuclease activity in plate reader [1]: able to inhibit nsp15 endoribonuclease activity; effect on nsp15 endoribonuclease activity in gel-based assay [2]: inhibited nsp15 endoribonuclease; effect on nuclease cleavage by RNase A (RNase A): did not affect nuclease cleavage; effect on nuclease cleavage by benzonase [4]: did not affect nuclease cleavage; SARS-CoV-2 viral growth in VERO E6 cells (SARS-CoV-2; MOI 0.5 PFU/cell, 22 h post-infection, titration at lower concentrations): viral growth was not inhibited; additive effect with remdesivir on SARS-CoV-2 infectivity (SARS-CoV-2; VERO E6 cells, NSC95397 titration in the presence of 0.5 µM remdesivir): did not observe any additive effect; concentration that sacrificed VERO E6 cells (VERO E6 cells): above 10 μM
CO[C@@H]1[C@@H](OC(N)=O)[C@@H](O)[C@H](Oc2ccc3c(O)c(NC(=O)c4ccc(O)c(CC=C(C)C)c4)c(=O)oc3c2C)OC1(C)C [Novobiocin] |  | 98% and 95% | 
Cc1ncc([N+](=O)[O-])n1CC(O)CCl (stereo not drawn) [Ornidazole] | 62% | 66% | 
CC(COc1ccccc1)N(CCCl)Cc1ccccc1 (stereo not drawn) [Phenoxybenzamine] | 58% | 37% | 
Oc1cc2c(cc1O)C(c1ccccc1)CNCC2 (stereo not drawn) [SKF 38393 hydrobromide] | 62% | 65% | 
C[C@H]1CC[C@@]2(OC1)O[C@H]1C[C@H]3[C@@H]4CC[C@@H]5C[C@@H](O)CC[C@]5(C)[C@H]4CC[C@]3(C)[C@H]1[C@@H]2C [Sarsasapogenin] |  | 100% and 96% | 
